{"source": "patent US11207321B2", "about": "“Methods and medical uses” (Institute of Cancer Research: Royal Cancer Hospital (The), priority 2017, dated 2021)", "tested_on": "palbociclib-resistant breast cancer cell lines (wild type and LTED)", "experiment": "Proliferation assays with MPS1 inhibitors in panel of palbociclib-resistant breast cancer cell lines", "format": "cell-based", "settings": "addition of CCT289346 to palbociclib", "description": "Wt cells were stripped of E2 for 72 hrs prior to experiment. After 24 hrs cells were treated with escalating doses of MPS1 inhibitors±palbocliclib. Media was replaced after 3 days and cell viability was assessed after 6 days using the CellTitre-Glo® Luminescent Cell Viability Assay (Promega) according to manufacturer's instructions."}
{"smiles": "CCOc1cc(-c2nncn2C)ccc1Nc1ncc2cc(C)nc(NCC(C)(C)C)c2n1", "note": "[CCT289346, N2-(2-ethoxy-4-(4-methyl-4H-1,2,4-triazol-3-yl)phenyl)-6-methyl-N8-neopentylpyrido[3,4-d]pyrimidine-2,8-diamine]", "values": [{"measurement": "effect of combination with palbociclib", "value": "synergistic/additive effect"}]}
